Numbers after ± are expanded uncertainties.
Legend:
[1] = wn = mass fraction of the nth substance listed; details: 96.2 kPa, Liquid, w1 = 0.3; for viscosity: Cone and plate viscometry; for mass density: Pycnometric method; for thermal conductivity: transient hot wire
[2] = molar heat capacity at constant pressure; wn = mass fraction of the nth substance listed; details: 96.2 kPa, Liquid, DSC, w1 = 0.3

CC(O)CO (stereo unspecified) [1,2-propanediol] + O
Details	mass density, [1] [kg/m3]	molar heat capacity at constant pressure, [2] [J/K/mol]	thermal conductivity, [1] [W/m/K]	viscosity, [1] [mPa·s]
293.15 K	1023.1 ± 1.1	89.44 ± 4.1	0.443 ± 0.013	3.02 ± 0.09
303.15 K	1019.2 ± 1.1	90 ± 4.2	0.454 ± 0.014	2.2 ± 0.07
313.15 K	1014.5 ± 1.1	90.52 ± 4.2	0.463 ± 0.014	1.61 ± 0.05
323.15 K	1009 ± 1.1	91.03 ± 4.2	0.472 ± 0.014	1.31 ± 0.04
